The values below come from patent US12612403B2, “Nitrogen-containing heterocyclic derivative inhibitor, and preparation method therefor and use thereof” (SHANGHAI HANSOH BIOMEDICAL CO., LTD., priority 2024, dated 2026).

Data set [1] relates to hyperlipidemia animal model of B6-hPCSK9 transgenic mice. The experiment in a line: In vivo pharmacodynamic study in hyperlipidemia model of B6-hPCSK9 transgenic mice (LDL-C, TC, plasma PCSK9). The settings on record: PO administration, Day 14, B6-hPCSK9 transgenic mice on high-fat feed, normalized to vehicle group. Also on record: species or system B6-hPCSK9 transgenic C57 mice. The method, then:
1. Experimental objective: The compounds of the present disclosure were evaluated for in vivo pharmacodynamics in a hyperlipidemia animal model of B6-hPCSK9 transgenic mice.
2.1 Animals: B6-hPCSK9 transgenic C57 mice, 6-8 weeks old, male, purchased from Jiangsu GemPharmatech Co., Ltd.
2.2 Animal model: After delivery to a barrier system, the animals were given one week for acclimatization and began to feed on the high-fat feed. The body weight and feed weight were weighed once a week, and the body weight and food intake thereof were recorded.
2.3 Grouping and administration • a. The animals were grouped by a random grouping method. • c. According to the grouping results, administration with the test drug was started (mode of administration: oral administration; administration volume: 10 mL/kg; frequency of administration: once/day or single administration; administration cycle: 21 days; vehicle: 10% Solutol HS 15/90% Saline). Test drug: Compounds of the present disclosure, made in house. • d. After the test drug was administered, the body weight and feed weight were weighed twice a week and blood was taken once a week. • e. The data was processed with software such as Excel. […] PCSK9 in plasma was detected by ELISA.

The nature of data set [2]: Pharmacokinetic determination in mice (PO 5 mg/kg, IV 1 mg/kg). The format is in vivo, C57BL/6J mice. The settings on record: male, C57BL/6J, mouse, plasma, C57 mice, PO administration, 5 mpk; for AUC(0-inf): read-out: Area under the curve AUC0-∞; for half-life: read-out: Half-life t1/2 (converted); for MRT: read-out: Mean residence time MRT; for Cmax: read-out: Plasma concentration Cmax; for Tmax: read-out: Time to peak tmax. In short, it runs like this:
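Fasted male C57BL/6J mice (n=3 per route) dosed PO 5 mg/kg in 10% Solutol HS15 or IV 1 mg/kg in 5% DMSO/10% Solutol HS15/85% PBS. Orbital blood sampled 0.083 (IV) to 24 h; plasma measured by LC-MS/MS, parameters by WinNonlin.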

Data set [3] can be described thus: In vitro metabolic stability in human liver microsomes. The settings on record: pH 7.4. The format is in vitro ADME. The method, then:
1. Experimental objective: The purpose of this experiment was to evaluate the metabolic stability of the compounds in phase I and partially phase II in mouse, rat and human liver microsomes, respectively.
2.1 Drug preparation: 10 mM stock solution of the compound of the present disclosure was prepared in DMSO (or other suitable solution) and stored in a −20° C. refrigerator for later use. The compound of the present disclosure was made in house.
2.2 Experimental steps • 1) Preparation of buffer: 4.01 mL of 1 M K2HPO4·3H2O (AR grade) and 0.99 mL of 1 M KH2PO4 (AR grade) were dissolved in ultrapure water and the volume was adjusted to 50 mL to prepare a phosphate buffer with a final concentration of 100 mM. • 2) Preparation of compound working solution: Preparation of compound working solution: 2 μL of the compound stock solution was added to 998 μL of phosphate buffer to a final concentration of 20 μM. According to the properties of the compound, the preparation proportions could be adjusted appropriately to adjust the final concentration. • 3) Preparation of liver microsome working solution: 156.3 μL of 20 mg/mL microsomes were diluted to 5 mL with 100 mM phosphate buffer, and the mixture was mixed well to reach a final concentration of 0.625 mg/mL. • 4) Preparation of NADPH and UDPGA: 33.3 mg of NADPH and 25.8 mg of UDPGA were weighed and added to 2 mL of 100 mM phosphate buffer to reach a final concentration of 20 mM. • 5) Preparation of pore-forming agent (Alamethicin): 1 mg of Alamethicin was weighed and added to 200 μL of methanol to prepare a 5 mg/mL solution. 10 μL of the solution was taken and added to 990 μL phosphate buffer (pH 7.4) to reach a final concentration of 50 μg/mL. • 6) Preparation of reaction stop solution: The internal standard was diluted with acetonitrile (or other suitable solution) to use as a stop solution and stored in a 2° C.-8° C. refrigerator. • 7) Incubation process: 400 μL of the prepared liver microsomes, 25 μL of the compound working solution (20 μM) and 25 μL of Alamethicin (50 μg/mL) were successively added to the 96-well plate, and the mixture was pre-incubated at 37° C. for 10 min. Then, 50 μL of prepared NADPH/UDPGA was added to start the reaction, and the mixture was incubated at 37° C. The total volume of the reaction system was 500 μL. The final contents of each component were as follows:
50 μL of samples were taken at 0, 5, 15, 30, 60 and 120 min, respectively, 200 μL of a cold stop solution containing the internal standard was added to stop the sample reaction, the mixture was centrifuged at 3500 rpm for 10 min, and the supernatant was taken and analyzed by LC-MS/MS.
Instruments: Shimadzu LC-20 AD; Chromatographic column: Phenomenex Gamin® C18 (50*4.6 mm, 5 μm particle size); mobile phase: A: 0.1% aqueous formic acid, B: acetonitrile; Elution gradient: 0.2-1.6 min, […], 3.0-3.1 min, 95% A to 5% A; Flow rate: 1.0 ml/min; Run time: 4.0 min; Injection volume: 5 μL.
Instruments: AP14000 liquid chromatography mass spectrometer, AB Sciex; Ion source: electrospray ionization source (ESI); Drying gas: N2, temperature 500° C.; Electrospray voltage: 5000 V; Detection mode: positive ion detection; Scanning mode: Reaction Monitoring (MRM) mode; Scanning time: 0.8401 s.
3. Data processing: The raw data were calculated according to the following formula: […]
The in vitro liver microsome intrinsic clearance rate (CLint) and liver intrinsic clearance rate (CLint,liver) were calculated by Ke.
A general note: Liver microsomes are vesicles of endoplasmic reticulum, rich in cytochrome P450 enzymes.

The target of another data set is T1, PCSK9 protein (Homo sapiens, UniProt Q8NBP7).
T1 construct: purchased Sino biology (Sino Biological) 29698-H08H
T1 sequence (Q8NBP7 153-692): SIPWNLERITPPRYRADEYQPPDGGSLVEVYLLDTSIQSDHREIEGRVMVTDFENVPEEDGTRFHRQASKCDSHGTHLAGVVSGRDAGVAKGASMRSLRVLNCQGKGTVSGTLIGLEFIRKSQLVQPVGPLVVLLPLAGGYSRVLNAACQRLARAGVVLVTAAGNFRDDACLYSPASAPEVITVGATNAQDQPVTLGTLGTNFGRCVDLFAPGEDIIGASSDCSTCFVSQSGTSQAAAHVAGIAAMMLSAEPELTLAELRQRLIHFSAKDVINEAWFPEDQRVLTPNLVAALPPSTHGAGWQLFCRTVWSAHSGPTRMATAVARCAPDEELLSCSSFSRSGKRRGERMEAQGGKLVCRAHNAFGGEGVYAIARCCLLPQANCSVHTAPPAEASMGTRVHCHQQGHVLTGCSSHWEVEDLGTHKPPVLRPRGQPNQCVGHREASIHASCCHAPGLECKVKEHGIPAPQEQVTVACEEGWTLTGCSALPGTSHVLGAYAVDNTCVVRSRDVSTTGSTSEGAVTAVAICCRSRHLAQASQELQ
In words: Binding ability to PCSK9 protein (HTRF). The settings on record: PCSK9-His, Alexa Fluor 647 probe compound. The method, then:
1. Experimental objective: To detect the action of compounds to bind PCSK9 protein by an HTRF method.
3. Experimental data processing method: Four-parameter log(inhibitor) vs. response—Variable slope (four parameters) in XLit was used to perform non-linear fitting of the compound concentration and the corresponding inhibition rate, and IC50 was calculated.
For orientation: In TR-FRET formats the signal depends on donor and acceptor labels being close together.

In data set [4] the test system is PCSK9 secreted by HepG2 cells. The experiment in a line: Effect on the concentration of PCSK9 secreted by HepG2 cells (ELISA). The format is cell-based. The settings on record: Homo sapiens, 48 hours, PCSK9 in culture medium by ELISA. The method, boiled down:
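HepG2 cells treated with compound for 48 h at 37° C., 5% CO2. Secreted PCSK9 in medium quantified by sandwich ELISA (HRP detection, OD 450 nm) against a 0–10 ng/mL standard curve. Inhibition relative to control; IC50 fitted from concentration–inhibition data.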
Background: In an ELISA, binding on a coated surface is turned into a signal by an enzyme label.

On to `O=C1c2cccnc2CN1c1ccc(N[C@H]2CC[C@H](Nc3nc4cc(C(F)(F)F)ccn4n3)C2)nc1` [Example 12, 6-(6-(((1S,3S)-3-((7-(trifluoromethyl)-[1,2,4]triazolo[1,5-a]pyridin-2-yl)amino)cyclopentyl)amino)pyridin-3-yl)-6,7-dihydro-5H-pyrrolo[3,4-b]pyridin-5-one], for which the “LDL-C change vs vehicle (%), Day 14” value in data set [1] (10 mpk) was −33.75%. For the same compound, in data set [2], the AUC(0-inf) turned out to be 9510 ng·h/mL, the half-life is 2.9 h, the mean residence time (MRT) is 2.8 h and the Cmax is 4310 ng/mL. In addition, the time to peak (Tmax) in data set [2] was found to be 0.25 h.
In data set [3], `O=c1nc(O)c(F)cn1-c1ccc(N[C@H]2CC[C@H](Nc3nc4cc(C(F)(F)F)ccn4n3)C2)nc1` [Example 110] registered a half-life at 1 µM of 78.7 h and an intrinsic metabolic clearance (microsomal CLint) at 1 µM of 0.3 µL/min/mg. Also, in data set [2], the AUC(0-inf) was 11300 ng·h/mL, the half-life was 3 h, the mean residence time MRT came to 2.6 h and the Cmax was determined as 2920 ng/mL. Further, the time of peak concentration (Tmax) in data set [2] worked out at 1 h. Besides, the IC50 on PCSK9 protein worked out at 18.7 nM.
On to `O=C1c2ncccc2CN1c1cnc(N[C@H]2CC[C@H](Nc3nc4cc(C(F)(F)F)ccn4n3)C2)c(F)c1` [Example 112, 6-(5-fluoro-6-(((1S,3S)-3-((7-(trifluoromethyl)-[1,2,4]triazolo[1,5-a]pyridin-2-yl)amino)cyclopentyl)amino)pyridin-3-yl)-5,6-dihydro-7H-pyrrolo[3,4-b]pyridin-7-one], for which, in data set [1] (10 mpk), the “LDL-C change vs vehicle (%), Day 14” value is −38.14%. For the same compound, in data set [2], the AUC(0-inf) worked out at 33800 ng·h/mL, the half-life was 2.2 h, the MRT came out at 4.7 h and the Cmax is 5070 ng/mL. Also, the Tmax in data set [2] worked out at 1 h. 6900 nM corresponded to half-maximal inhibition in data set [4] (IC50). This compound registered a half-inhibitory concentration (IC50) on PCSK9 protein of 8.3 nM.
For the compound `O=C1c2ccc(C(F)(F)F)nc2CN1c1ccc(N[C@H]2CC[C@H](Nc3nc4cc(OC(F)F)ccn4n3)C2)nc1` [Example 133], in data set [2], the AUC(0-inf) amounted to 86800 ng·h/mL, the half-life was 5 h, the MRT is 5.8 h and the Cmax turned out to be 11000 ng/mL. The time to peak (Tmax) in data set [2] is 2 h. The 50% inhibitory concentration (IC50) in data set [4] stood at 400 nM. In addition, the half-inhibitory concentration (IC50) on PCSK9 protein came to 7.8 nM.
Regarding `O=C1c2ncc(F)cc2CN1c1cnc(N[C@H]2CC[C@H](Nc3nc4cc(C(F)(F)F)ccn4n3)C2)c(F)c1` [Example 145], in data set [2], the AUC(0-inf) turned out to be 22600 ng·h/mL, the half-life is 3.3 h, the MRT is 3.1 h and the Cmax was 6310 ng/mL. The Tmax in data set [2] stood at 1 h. In addition, the midpoint of inhibition in data set [4], the IC50, lay at 2900 nM. Moreover, the IC50 at PCSK9 protein was determined as 10.6 nM.
In the case of `O=C1c2ncc(F)cc2CN1c1cnc(N[C@H]2CC[C@H](Nc3nc4cc(OC(F)F)ccn4n3)C2)c(F)c1` [Example 154], the “LDL-C change vs vehicle (%), Day 14” value in data set [1] (10 mpk) is given as −35.66%. In data set [2], the AUC(0-inf) was found to be 13300 ng·h/mL, the half-life is 2.5 h, the MRT came out at 3.7 h and the Cmax came to 2640 ng/mL. For the same compound, in data set [2], the Tmax was 1 h. The compound also showed an IC50 in data set [4] of 5500 nM.
Regarding `O=C1c2ccc(C(F)(F)F)nc2CN1c1cnc(N[C@H]2CC[C@H](Nc3nc4cc(OC(F)F)ccn4n3)C2)c(F)c1` [Example 159], in data set [3], the half-life at 1 µM was found to be 20.1 h and the microsomal CLint at 1 µM worked out at 1.15 µL/min/mg. Moreover, in data set [2], the AUC(0-inf) turned out to be 76800 ng·h/mL, the half-life was 9.8 h, the mean residence time MRT stood at 10.7 h and the Cmax came out at 7660 ng/mL. In addition, the time to peak (Tmax) in data set [2] amounted to 2 h. The IC50 at PCSK9 protein was found to be 16.8 nM.
In data set [3], `O=C1c2ncccc2CN1c1cnc(N[C@H]2CC[C@H](Nc3nc4cc(F)ccn4n3)C2)c(F)c1` [Example 164] yielded a half-life at 1 µM of 15.6 h and a microsomal CLint at 1 µM of 1.48 µL/min/mg. Further, at PCSK9 protein, the IC50 was 7.2 nM.
Consider `O=c1ccccn1-c1cnc(N[C@H]2CC[C@H](Nc3nc4cc(F)ccn4n3)C2)c(F)c1` [Example 186, 5′-fluoro-6′-(((1S,3S)-3-((7-fluoro-[1,2,4]triazolo[1,5-a]pyridin-2-yl)amino)cyclopentyl)amino)-2H-[1,3′-bipyridine]-2-one], for which, in data set [3], the half-life at 1 µM was found to be 35.4 h and the microsomal CLint at 1 µM was determined as 0.7 µL/min/mg. Besides, the “LDL-C change vs vehicle (%), Day 14” value in data set [1] (10 mpk) was −51.19%. Further, the IC50 on PCSK9 protein came to 8.5 nM.
With `O=c1nc(O)ccn1-c1cnc(N[C@H]2CC[C@H](Nc3nc4cc(F)ccn4n3)C2)c(F)c1` [Example 188], in data set [3], the half-life at 1 µM was determined as 12.6 h and the microsomal CLint at 1 µM was 1.8 µL/min/mg. For the same compound, the “LDL-C change vs vehicle (%), Day 14” value in data set [1] (10 mpk) is −47.11%.
For the compound `O=C1c2ccnn2CCN1c1cnc(N[C@H]2CC[C@H](Nc3nc4cc(F)ccn4n3)C2)c(F)c1` [Example 201], the “LDL-C change vs vehicle (%), Day 14” value in data set [1] (10 mpk) is listed as −31.45%.
On the same count and under the same terms, with `O=C1c2ccnn2CCN1c1cnc(N[C@H]2CC[C@H](Nc3nc4cc(C(F)(F)F)ccn4n3)C2)c(F)c1` [Example 212] the figure was −60.08%.
Consider `O=c1ccccn1-c1ccc(N[C@H]2CC[C@H](Nc3nc4cc(F)ccn4n3)C2)nc1` [compound 1, 6′-(((1S,3S)-3-((7-fluoro-[1,2,4]triazolo[1,5-a]pyridin-2-yl)amino)cyclopentyl)amino)-2H-[1,3′-bipyridine]-2-one, reference compound], for which the “LDL-C change vs vehicle (%), Day 14” value in data set [1] (6 mpk) is −31.52%.

By MRT is commonly meant a mean duration of stay, worked out from the concentration-time curve. For orientation: Tmax means the time at which the peak concentration occurs. The microsomal CLint is a measure of how fast metabolising enzymes remove a compound, apart from limits set by blood flow. A high value points to rapid turnover. What is called IC50 is the point on the concentration scale where inhibition reaches its midpoint. A higher IC50 goes with weaker potency in that assay.
